Measurements taken from patent publication US20210070748A1, “INHIBITORS OF BRUTONS TYROSINE KINASE” (Pharmacyclics LLC, priority 2015, published 2021).
Like-named read-outs stand apart in the source and are kept apart here.

Columns and labels:
ITK = target: T1, ITK (Homo sapiens, UniProt Q08881); experiment: Inhibition of a panel of kinases, in vitro HotSpot kinase assay: ITK; assay type: biochemical
T1 sequence (Q08881 1-620): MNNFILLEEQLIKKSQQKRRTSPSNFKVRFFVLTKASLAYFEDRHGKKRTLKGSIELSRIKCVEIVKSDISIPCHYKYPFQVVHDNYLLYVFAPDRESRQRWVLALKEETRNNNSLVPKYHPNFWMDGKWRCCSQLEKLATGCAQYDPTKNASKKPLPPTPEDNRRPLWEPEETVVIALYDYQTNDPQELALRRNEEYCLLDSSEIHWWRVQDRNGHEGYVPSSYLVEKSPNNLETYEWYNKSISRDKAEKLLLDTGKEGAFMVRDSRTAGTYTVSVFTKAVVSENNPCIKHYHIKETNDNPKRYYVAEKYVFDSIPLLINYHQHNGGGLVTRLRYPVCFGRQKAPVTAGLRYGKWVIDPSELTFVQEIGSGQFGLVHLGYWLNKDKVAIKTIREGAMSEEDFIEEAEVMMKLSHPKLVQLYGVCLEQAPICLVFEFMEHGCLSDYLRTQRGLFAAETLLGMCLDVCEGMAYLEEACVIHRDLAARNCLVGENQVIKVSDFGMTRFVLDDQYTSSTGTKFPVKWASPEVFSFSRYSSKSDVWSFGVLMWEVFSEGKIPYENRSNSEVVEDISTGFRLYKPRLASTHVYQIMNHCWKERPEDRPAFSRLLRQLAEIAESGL
Experimental: The degree of inhibition of a panel of kinases is determined using the in vitro HotSpot kinase assay (purified enzymes, ^33P-ATP, an appropriate substrate and 1 μM ATP).

BTK-WT = target: T2, BTK-WT (Homo sapiens, UniProt Q06187); experiment: Btk in vitro inhibitory activity (one of Method A TR-FRET, Method B electrophoretic mobility shift, Method C radiometric filter binding); assay type: biochemical; details: read-out: IC50 BTK-WT
T2 construct: purified from insect cells as a full-length construct containing an N-terminal 6X-His tag; His6 (N); made in house; host or cells: insect cells (baculovirus Sf21 in Method B)
Experimental: Btk kinase activity is determined using a time-resolved fluorescence resonance energy transfer (TR-FRET) methodology. Measurements are performed in a reaction volume of 50 μL using 96-well assay plates. […] The reaction is quenched by the addition of 1.2 equivalents of EDTA (relative to divalent cation) in 25 μL of 1× Lance buffer (Perkin-Elmer). […] The TR-FRET signal is measured on a multimode plate reader with an excitation wavelength (λEx) of 330 nm and detection wavelengths (λEm) of 615 and 665 nm. Activity is determined by the ratio of the fluorescence at 665 nm to that at 615 nm. For each compound, enzyme activity is measured at various concentrations of compound. Negative control reactions are performed in the absence of inhibitor in replicates of six, and two no-enzyme controls are used to determine baseline fluorescence levels. Inhibition constants, Ki(app), were obtained using the program BatchKi(Kuzmic et al. (2000), Anal. Biochem. 286:45-50). IC50s are obtained according to the equation:
IC50={Ki(app)/(1+[ATP]/Km^ATP)}+[E]total/2;
Kinase activity is measured in vitro using electrophoretic mobility shift assay. The kinase reactions are assembled in a total volume of 25 μL in 384 well plates. […] The reaction is incubated for one hour and is quenched by the addition of 45 μL of termination buffer (100 mM HEPES, pH7.5, 0.01% Triton X-100, 30 mM EDTA). The terminated reactions are analyzed using 12 channel LabChip® 3000 microfluidic detection instrument (Caliper Life Sciences). […] Change in the relative fluorescence intensity of the substrate and product peaks is the parameter measured, reflecting enzyme activity. In the presence of an inhibitor, the ratio between product and substrate is altered: the signal of the product decreases, while the signal of the substrate increases.
Activity in each sample is determined as the product to sum ratio (PSR): P/(S+P), where P is the peak height of the product peptide and S is the peak height of the substrate peptide. For each compound, enzyme activity is measured at various concentrations (12 concentrations of compound spaced by 3× dilution intervals). Negative control samples (0%-inhibition in the absence of inhibitor) and positive control samples (100%-inhibition, in the presence of 20 mM EDTA) are assembled in replicates of four and are used to calculate %-inhibition values for each inhibitor at each concentration. Percent inhibition (Pinh) is determined using following equation:
Pinh=(PSR0%-PSRinh)/(PSR0%−PSR100%)*100, where PSRinh is the product sum ratio in the presence of inhibitor, PSR0% is the average product sum ration in the absence of inhibitor and PSR100% is the average product sum ratio in 100%-inhibition control samples;
The IC50 values of inhibitors are determined by 4 parameter sigmoidal dose-response model fitting of the inhibition curves (Pinh versus inhibitor concentration) using XLfit 4 software.
Human Btk kinase (Genbank accession # NP_000052) was purified from insect cells as a full-length construct containing an N-terminal 6X-His tag. Btk kinase activity was determined using a radiometric filter binding assay. Measurements are performed in a low μL reaction volume 384-well assay plates. […] IC50 values and curve fits were obtained using Prism (GraphPad Software).

[1] = Table 15, C compounds, 1 μM ATP

T2 sequence (Q06187 whole entry): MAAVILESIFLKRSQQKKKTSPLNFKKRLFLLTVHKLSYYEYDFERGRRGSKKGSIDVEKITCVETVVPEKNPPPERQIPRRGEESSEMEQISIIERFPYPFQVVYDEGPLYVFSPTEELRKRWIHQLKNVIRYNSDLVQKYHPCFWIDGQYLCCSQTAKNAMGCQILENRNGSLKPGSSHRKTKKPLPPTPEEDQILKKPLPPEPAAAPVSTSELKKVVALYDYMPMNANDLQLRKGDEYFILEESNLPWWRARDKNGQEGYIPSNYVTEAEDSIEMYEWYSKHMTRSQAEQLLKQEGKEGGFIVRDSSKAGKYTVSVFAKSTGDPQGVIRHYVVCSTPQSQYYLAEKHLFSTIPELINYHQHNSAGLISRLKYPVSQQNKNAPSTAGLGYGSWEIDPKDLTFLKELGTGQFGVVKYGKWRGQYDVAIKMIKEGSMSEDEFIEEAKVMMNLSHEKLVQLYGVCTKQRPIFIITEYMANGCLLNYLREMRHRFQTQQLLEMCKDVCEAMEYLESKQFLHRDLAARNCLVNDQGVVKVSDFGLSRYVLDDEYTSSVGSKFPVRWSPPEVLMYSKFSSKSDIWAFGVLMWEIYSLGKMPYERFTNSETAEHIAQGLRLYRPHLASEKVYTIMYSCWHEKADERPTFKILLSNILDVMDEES

Structure (SMILES) | IC50 (ITK; [1]) [nM] | IC50 (BTK-WT; Table 15, C compounds) [nM] | IC50 (ITK; E compounds, Table 17) [nM] | IC50 (BTK-WT; E compounds, Table 17) [nM]
C=CC(=O)N1CCC[C@@H](Nc2nnc(C(N)=O)c(Nc3cccc(-c4nccs4)c3)n2)C1 [Example C-86, (R)-3-(1-acryloylpiperidin-3-ylamino)-5-(3-(thiazol-2-yl)phenylamino)-1,2,4-triazine-6-carboxamide] | 10 to 100 | ≤ 10 |  | 
C=CC(=O)N1CCC[C@@H](Nc2nnc(C(N)=O)c(Nc3ccc4c(c3)CCC(=O)N4C)n2)C1 [Example C-87, (R)-3-(1-acryloylpiperidin-3-ylamino)-5-(1-methyl-2-oxo-1,2,3,4-tetrahydroquinolin-6-ylamino)-1,2,4-triazine-6-carboxamide] | ≤ 10 | ≤ 10 |  | 
C=CC(=O)N1CCC[C@@H](Nc2nnc(C(N)=O)c(Nc3ccc(C(C)C)cc3)n2)[C@@H]1C [Example E-17, 3-((2S,3R)-1-acryloyl-2-methylpiperidin-3-ylamino)-5-(4-isopropylphenylamino)-1,2,4-triazine-6-carboxamide] |  |  | 10 to 100 | ≤ 10
C=CC(=O)N1CCC[C@H](Nc2nnc(C(N)=O)c(Nc3ccc(-c4ncco4)cc3)n2)C1 [Example E-18, (S)-3-(1-acryloylpiperidin-3-ylamino)-5-(4-(oxazol-2-yl)phenylamino)-1,2,4-triazine-6-carboxamide] |  |  | 10 to 100 | ≤ 10
C=CC(=O)N1CCCC[C@H](Nc2nnc(C(N)=O)c(Nc3ccc(C(C)C)cc3)n2)C1 [Example E-19, (S)-3-(1-acryloylazepan-3-ylamino)-5-(4-isopropylphenylamino)-1,2,4-triazine-6-carboxamide] |  |  | 100 to 1000 | ≤ 10
C=CC(=O)N1CCCC[C@@H](Nc2nnc(C(N)=O)c(Nc3ccc(C(C)C)cc3)n2)C1 [Example E-20, (R)-3-(1-acryloylazepan-3-ylamino)-5-(4-isopropylphenylamino)-1,2,4-triazine-6-carboxamide] |  |  | ≤ 10 | ≤ 10
C=CC(=O)N[C@@H]1CCCN(c2nnc(C(N)=O)c(Nc3ccc(C(C)C)cc3)n2)C1 [Example E-21, (R)-3-(3-acrylamidopiperidin-1-yl)-5-(4-isopropylphenylamino)-1,2,4-triazine-6-carboxamide] |  |  | 100 to 1000 | 10 to 100
C=CC(=O)N[C@H]1CCCN(c2nnc(C(N)=O)c(Nc3ccc(C(C)C)cc3)n2)C1 [Example E-22, (S)-3-(3-acrylamidopiperidin-1-yl)-5-(4-isopropylphenylamino)-1,2,4-triazine-6-carboxamide] |  |  | 100 to 1000 | 10 to 100
C=CC(=O)N1CCC[C@H](Nc2nnc(C(N)=O)c(Nc3ccc(C(C)(C)C)cc3)n2)C1 [Example E-23, (S)-3-(1-acryloylpiperidin-3-ylamino)-5-(4-tert-butylphenylamino)-1,2,4-triazine-6-carboxamide] |  |  | 10 to 100 | ≤ 10
C=CC(=O)N[C@H]1CCCC[C@H]1Nc1nnc(C(N)=O)c(Nc2ccc(C(C)C)cc2)n1 [Example E-25, 3-((1R,2S)-2-acrylamidocyclohexyl-amino)-5-(4-isopropylphenylamino)-1,2,4-triazine-6-carboxamide] |  |  | 100 to 1000 | ≤ 10

Continued, values first:

IC50 (ITK; [1]) [nM] | IC50 (BTK-WT; Table 15, C compounds) [nM] | IC50 (ITK; E compounds, Table 17) [nM] | IC50 (BTK-WT; E compounds, Table 17) [nM] | Structure (SMILES)
 |  | 10 to 100 | ≤ 10 | C=CC(=O)N1CCC[C@H](N(C)c2nnc(C(N)=O)c(Nc3ccc(C(C)C)cc3)n2)C1 [Example E-27, (S)-3-((1-acryloylpiperidin-3-yl)(methyl)amino)-5-(4-isopropylphenylamino)-1,2,4-triazine-6-carboxamide]
 |  | 100 to 1000 | ≤ 10 | C=CC(=O)N[C@@H]1CCCC[C@H]1Nc1nnc(C(N)=O)c(Nc2ccc(C(C)C)cc2)n1 [Example E-28, 3-((1R,2R)-2-acrylamidocyclo-hexylamino)-5-(4-isopropylphenylamino)-1,2,4-triazine-6-carboxamide]
 |  | 100 to 1000 | ≤ 10 | C=CC(=O)N[C@H]1CCCC[C@@H]1Nc1nnc(C(N)=O)c(Nc2ccc(C(C)C)cc2)n1 [Example E-29, 3-((1S,2S)-2-acrylamidocyclohexyl-amino)-5-(4-isopropylphenylamino)-1,2,4-triazine-6-carboxamide]
 |  | ≤ 10 | ≤ 10 | C=CC(=O)N1CCC(C)(c2ccc(Nc3nc(N[C@@H]4CCCN(C(=O)C=C)C4)nnc3C(N)=O)cc2)CC1 [Example E-32, (R)-5-(4-(1-acryloyl-4-methylpiperidin-4-yl)phenylamino)-3-(1-acryloylpiperidin-3-ylamino)-1,2,4-triazine-6-carboxamide]
 |  | 100 to 1000 | 10 to 100 | C=CC(=O)N[C@@H]1CCCC[C@@H]1Nc1nnc(C(N)=O)c(Nc2ccc(C(C)C)cc2)n1 [Example E-34, 3-((1S,2R)-2-acrylamidocyclohexyl-amino)-5-(4-isopropylphenylamino)-1,2,4-triazine-6-carboxamide]
 |  | 100 to 1000 | ≤ 10 | CCC(=O)N1CCC[C@@H](Nc2nnc(C(N)=O)c(Nc3ccc(C(C)(C)C)cc3)n2)C1 [Example E-35, (R)-5-(4-tert-butylphenylamino)-3-(1-propionylpiperidin-3-ylamino)-1,2,4-triazine-6-carboxamide]
 |  | 10 to 100 | ≤ 10 | C=CC(=O)N1CCC[C@@H](Nc2nnc(C(N)=O)c(Nc3ccc(C4CC4)cc3)n2)C1 [Example E-36, (R)-3-(1-acryloylpiperidin-3-ylamino)-5-(4-cyclopropylphenyl-amino)-1,2,4-triazine-6-carboxamide]
 |  | 1000 to 10000 | ≤ 10 | C=CC(=O)N1CCC[C@@H](N(C(=O)C=C)c2nnc(C(N)=O)c(Nc3ccc(C4CC4)cc3)n2)C1 [Example E-37, (R)-3-(N-(1-acryloylpiperidin-3-yl)acrylamido)-5-(4-cyclopropylphenyl-amino)-1,2,4-triazine-6-carboxamide]
 |  | ≤ 10 | ≤ 10 | C=CC(=O)N1CCC[C@@H](Nc2nnc(C(N)=O)c(Nc3ccc(C4(C#N)CC4)cc3)n2)C1 [Example E-38, (R)-3-(1-acryloylpiperidin-3-ylamino)-5-(4-(1-cyanocyclopropyl)phenylamino)-1,2,4-triazine-6-carboxamide]
 |  | 100 to 1000 | ≤ 10 | C=CC(=O)N1CCC[C@@H](N(C(=O)C=C)c2nnc(C(N)=O)c(Nc3ccc(C4(C#N)CC4)cc3)n2)C1 [Example E-39, (R)-3-(N-(1-acryloylpiperidin-3-yl)acrylamido)-5-(4-(1-cyanocyclopropyl)phenylamino)-1,2,4-triazine-6-carboxamide]
 |  | 10 to 100 | ≤ 10 | C=CC(=O)N1CCC[C@@H](Nc2nnc(C(N)=O)c(Nc3cccc(C)c3)n2)C1 [Example E-44, (R)-3-(1-acryloylpiperidin-3-ylamino)-5-(m-tolylamino)-1,2,4-triazine-6-carboxamide]
